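Dose response: 5 concentrations. Exposure: 48 h. Format: 96-well plates. Endpoint: linear interpolation; highest concentration if not reached. GI50 is the concentration that inhibits growth by half.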 Calls of active or inactive are those of the source. Rule as the data show it: active = GI50 up to about 1.1 µM and inactive = higher.
Legend:
Assay in all cases: NCI tumour cell line growth inhibition, 48 h
SK-OV-3 = test system: SK-OV-3
HOP-92 = test system: HOP-92
SF-295 = test system: SF-295
HL-60 = test system: HL-60
DU-145 = test system: DU-145
NCI-H226 = test system: NCI-H226
786-0 = test system: 786-0
M14 = test system: M14
RXF 393 = test system: RXF 393
MDA-MB-435 = test system: MDA-MB-435
HT-29 = test system: HT-29
A498 = test system: A498
NCI-H522 = test system: NCI-H522
SF-539 = test system: SF-539
BT-549 = test system: BT-549
SW-620 = test system: SW-620
OVCAR-5 = test system: OVCAR-5
MDA-MB-231 = test system: MDA-MB-231
NCI-H460 = test system: NCI-H460
LOX IMVI = test system: LOX IMVI

Measured: GI50

C[C@]12CC[C@@H]3c4ccc(O)cc4CC[C@H]3[C@@H]1CC[C@@H]2OC(=O)CCC1CCCC1 [ESTRADIOL CYPIONATE]
inactive: SK-OV-3 19.4 µM | HOP-92 23.1 µM | SF-295 16.7 µM | HL-60 17.8 µM | DU-145 13.7 µM | NCI-H226 19.1 µM | 786-0 16.3 µM | M14 20.1 µM | RXF 393 10.4 µM | MDA-MB-435 10 µM | HT-29 17.9 µM | A498 20.3 µM | NCI-H522 17.1 µM | SF-539 18.8 µM | BT-549 17.7 µM | SW-620 20.9 µM | OVCAR-5 26.2 µM | MDA-MB-231 17.5 µM | NCI-H460 18.7 µM | LOX IMVI 18 µM
